The target of experiment [1] is Serine/threonine-protein kinase 10 (Homo sapiens, UniProt O94804). Put plainly: Inhibition of STK10 (unknown origin).
Experiment [2] deals with RAC-beta serine/threonine-protein kinase (Homo sapiens, UniProt P31751). Put plainly: Inhibition of AKT2 (unknown origin).

Each structure is given as a SMILES string.

Sequence of RAC-beta serine/threonine-protein kinase (P31751 whole entry): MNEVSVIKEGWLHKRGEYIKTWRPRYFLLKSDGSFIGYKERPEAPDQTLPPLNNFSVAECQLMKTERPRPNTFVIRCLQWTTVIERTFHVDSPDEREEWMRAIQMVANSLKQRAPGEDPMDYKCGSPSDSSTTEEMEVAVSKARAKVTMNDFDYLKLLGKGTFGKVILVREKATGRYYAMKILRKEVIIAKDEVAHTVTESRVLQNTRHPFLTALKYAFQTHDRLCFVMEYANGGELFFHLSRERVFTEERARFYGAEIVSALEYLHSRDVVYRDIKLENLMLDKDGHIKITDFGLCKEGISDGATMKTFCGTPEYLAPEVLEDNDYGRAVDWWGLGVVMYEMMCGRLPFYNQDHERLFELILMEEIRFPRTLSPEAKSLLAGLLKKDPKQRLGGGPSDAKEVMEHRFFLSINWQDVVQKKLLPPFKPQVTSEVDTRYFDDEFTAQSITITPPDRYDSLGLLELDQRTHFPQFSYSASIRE
Sequence of Serine/threonine-protein kinase 10 (O94804 whole entry): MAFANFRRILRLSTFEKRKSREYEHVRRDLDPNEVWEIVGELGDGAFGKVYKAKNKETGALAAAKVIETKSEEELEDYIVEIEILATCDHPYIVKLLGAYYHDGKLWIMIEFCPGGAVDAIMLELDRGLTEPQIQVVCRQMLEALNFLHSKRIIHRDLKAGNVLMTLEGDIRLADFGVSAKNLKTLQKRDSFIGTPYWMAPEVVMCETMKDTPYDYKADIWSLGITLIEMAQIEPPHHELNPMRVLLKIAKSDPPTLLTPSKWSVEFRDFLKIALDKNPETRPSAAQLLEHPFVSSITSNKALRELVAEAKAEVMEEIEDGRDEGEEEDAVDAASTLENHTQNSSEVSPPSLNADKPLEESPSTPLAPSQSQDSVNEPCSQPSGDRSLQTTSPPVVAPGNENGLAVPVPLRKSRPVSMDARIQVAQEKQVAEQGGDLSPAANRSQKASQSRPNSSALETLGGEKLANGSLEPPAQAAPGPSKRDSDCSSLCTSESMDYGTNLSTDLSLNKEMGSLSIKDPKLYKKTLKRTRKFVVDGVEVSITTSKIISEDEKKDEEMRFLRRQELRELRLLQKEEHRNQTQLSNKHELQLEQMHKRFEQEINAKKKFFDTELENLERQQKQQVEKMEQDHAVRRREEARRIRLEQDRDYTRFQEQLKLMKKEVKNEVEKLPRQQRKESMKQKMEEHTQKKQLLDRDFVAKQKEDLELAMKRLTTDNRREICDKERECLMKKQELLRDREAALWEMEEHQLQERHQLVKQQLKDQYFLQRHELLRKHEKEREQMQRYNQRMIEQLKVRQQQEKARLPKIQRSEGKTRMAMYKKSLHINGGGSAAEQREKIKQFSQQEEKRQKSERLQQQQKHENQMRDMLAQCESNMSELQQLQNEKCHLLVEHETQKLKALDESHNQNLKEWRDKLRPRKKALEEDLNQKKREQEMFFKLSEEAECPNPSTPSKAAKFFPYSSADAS

In experiment [1], `Oc1ccc(-c2nc(-c3ccncc3)c(-c3ccc(F)cc3)[nH]2)cc1` [SB-202190] gave a Ki of more than 10 µM.
In turn, `COc1cc(N2CCC(N3CCN(C)CC3)CC2)ccc1Nc1ncc(Cl)c(Nc2ccccc2S(=O)(=O)C(C)C)n1` [TAE-684] returned a Ki in experiment [2] of more than 10 µM.
